Experimental data published in ChEMBL document CHEMBL1201862, “PubChem BioAssay data set” (2004).
Activity calls are given as the source filed them. Cut-off read from the data, not from the text of the source: actives have a measured IC50 and inactives only a lower limit.

Biological target: Envelope glycoprotein gp160 (Human immunodeficiency virus 1, UniProt Q6QLK5)
Assay: inhibitors of HIV fusion peptide binding, primary screen, biochemical, uHTS, fluorescence dequenching (AID 1986)

Sequence of Envelope glycoprotein gp160 (Q6QLK5 whole entry, the tested form may be a part): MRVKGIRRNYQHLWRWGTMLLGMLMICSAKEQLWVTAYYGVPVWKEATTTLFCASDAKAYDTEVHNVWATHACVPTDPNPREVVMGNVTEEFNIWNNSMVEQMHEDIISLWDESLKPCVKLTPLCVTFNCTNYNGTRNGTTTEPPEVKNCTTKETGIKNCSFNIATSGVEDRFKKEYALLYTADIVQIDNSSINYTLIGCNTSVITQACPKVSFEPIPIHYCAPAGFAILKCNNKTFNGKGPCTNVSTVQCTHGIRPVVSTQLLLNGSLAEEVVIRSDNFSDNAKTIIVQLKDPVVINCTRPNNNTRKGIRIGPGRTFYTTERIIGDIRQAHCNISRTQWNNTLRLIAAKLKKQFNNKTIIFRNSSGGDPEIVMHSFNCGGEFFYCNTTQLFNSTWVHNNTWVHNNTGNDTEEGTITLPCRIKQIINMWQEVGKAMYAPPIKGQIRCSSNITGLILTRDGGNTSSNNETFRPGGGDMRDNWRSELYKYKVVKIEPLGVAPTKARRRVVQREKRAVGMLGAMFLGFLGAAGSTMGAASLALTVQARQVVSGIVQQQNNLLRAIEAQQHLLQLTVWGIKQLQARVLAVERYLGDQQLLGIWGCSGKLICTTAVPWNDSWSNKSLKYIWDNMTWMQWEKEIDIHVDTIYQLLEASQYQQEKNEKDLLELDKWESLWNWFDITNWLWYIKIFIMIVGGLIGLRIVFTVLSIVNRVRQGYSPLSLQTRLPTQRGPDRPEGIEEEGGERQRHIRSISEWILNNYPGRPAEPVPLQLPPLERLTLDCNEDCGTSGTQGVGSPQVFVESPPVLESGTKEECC

O=S(=O)(Nc1nc2ccccc2nc1Nc1cccc(S(=O)(=O)N2CCCCC2)c1)c1ccccc1
IC50: 13.3 µM (active)

COc1ccc(C(=O)/C=C/c2ccc(OCc3ccccc3)cc2)cc1CSCC(=O)O
IC50: 25.7 µM (active)

Cc1cc(/C=C2/C(=N)N3C(=NC2=O)SN=C3S(C)(=O)=O)c(C)n1-c1ccccc1
IC50: 19.1 µM (active)
